11 molecules from patent US10316056B2, “Chemical compounds and use thereof for improving muscular quality” (BIOPHYTIS, priority 2014, dated 2019) can be followed below.

Experiment [1] deals with S6 kinase (S6K1) phosphorylation in C2C12 cells. Description: Phosphorylation of the S6 kinase in C2C12 cells (ELISA pS6K T389), protein synthesis. It is filed as cell-based, mouse. To be noted: Mus musculus, C2C12, 2 h; for activity at 10 µM: read-out: Protein synthesis (percentage increase in S6K phosphorylation in muscle cells); for activity: test compounds and 20E reference (10 μM), read-out: S6K1 phosphorylation level. As to the method: After several experiments in which the C2C12 cells differentiated into myotubes were incubated in the presence of IGF-1 or 20E for 2 h 30 or 6 h, two screening tests were developed. Thus, the phosphorylation of the S6 protein kinase and the expression of the myostatin gene were studied in order to determine their modulation by a growth hormone or an ecdysone and to characterize these modulations from a statistical point of view.
The C2C12 myoblast cells (ATCC CRL-1772) are seeded into 6-well plates at a density of 170 000 cells per well and cultured in a DMEM medium containing glucose in a proportion of 4.5 g/l and supplemented with fetal calf serum (10%) and with antibiotics (penicillin and streptomycin). Forty-eight hours later, the myoblasts are induced to differentiate by partial serum depletion (2% instead of 10%) for 5 days. The cells are then placed in a medium which is glucose-depleted (DMEM containing 1 g/l of glucose) and serum-free in the presence of the test molecules or of the references (100 ng/ml IGF-1 or 10 μM 20E) for 2 h. At the end of the experiment, the cells are lysed in a commercial lysis buffer (Invitrogen FNN0011) supplemented with a commercial mixture of anti-proteases (Roche 05056489001). After centrifugation, the cytoplasmic fraction containing the soluble proteins is kept and the protein concentration is determined using a commercial kit (Biorad 500-0114), the principle of which is composed of assaying by the Lowry method. The assaying of the S6 kinase phosphorylation is carried out using a commercial ELISA (Enzyme Linked ImmunoSorbent Assay) kit (Cell signaling 7063). Briefly, 50 μg of protein lysate are deposited in the wells of a 96-well microplate and incubated overnight at 4° C. with the solution of antigen specific for the pS6 kinase threonine 389 antibody. The binding of the antigen to the bottom of the wells is done electrostatically. The solution of antibody to be assayed (pS6K T389) is then incubated at 37° C. in the wells for 2 hours. The antibodies bind specifically to the antigen. The wells are then washed with washing buffer in order to remove the antigen-specific primary antibodies to be assayed which are in excess. The third step consists in binding the detection antibody. The solution of detection antibodies is incubated at 37° C. in the wells for 1 hour. The wells are then washed in order to remove the excess detection antibodies. It should be noted that the detection antibodies are coupled to an enzyme which, in the presence of its substrate, converts it into a reaction product that can be detected and measured by virtue of the appearance of a coloration. […] The appearance of a blue coloration in the substrate indicates the presence of the antibody to be assayed. In order to prevent any saturation phenomenon, a stop solution (generally containing […]) is added and brings about a change in coloration, which goes from blue to yellow. The strength thereof is proportional to the amount of enzyme present and thus to the concentration of antibody sought. The strength of the signal is measured using spectrophotometry at a wavelength of 450 nm.
A general note: In an ELISA, binding on a coated surface is turned into a signal by an enzyme label.

The test system of experiment [2] is myostatin gene expression in C2C12 cells. Description: Inhibition of myostatin expression in C2C12 cells (qPCR). It is filed as cell-based. To be noted: Mus musculus, percentage myostatin gene expression in cells in contact with the compounds related to control cells, C2C12, 6 h. As to the method:
After several experiments in which the C2C12 cells differentiated into myotubes were incubated in the presence of IGF-1 or 20E for 2 h 30 or 6 h, two screening tests were developed. Thus, the phosphorylation of the S6 protein kinase and the expression of the myostatin gene were studied in order to determine their modulation by a growth hormone or an ecdysone and to characterize these modulations from a statistical point of view. The C2C12 myoblast cells (ATCC CRL-1772) are seeded into 24-well plates at a density of 30 000 cells per well and cultured in a DMEM medium containing glucose in a proportion of 4.5 g/l and supplemented with fetal calf serum (10%) and with antibiotics (penicillin and streptomycin). Forty-eight hours later, the myoblasts are induced to differentiate by partial serum depletion (2% instead of 10%) for 5 days. The cells are then placed in a medium which is glucose-depleted (DMEM containing 1 g/l of glucose) and serum-free in the presence of the test molecules or of the references (100 ng/ml IGF-1 or 10 μ[…]) for 6 h. At the end of the experiment, the messenger RNAs (mRNAs) are extracted using the conventional methodology based on phenol and chloroform. Briefly, the cells are lysed in a Trizol solution (Sigma T9424) containing a strong acid and phenol. The mRNAs are separated from the proteins by addition of chloroform and then centrifugation. They are then precipitated from isopropanol and then suspended at a concentration of 1 μg/μl in an […] ultrapure water. 1 μg of mRNA is then converted by reverse transcription into complementary DNA by the AMV enzyme in the presence of a primer and of a mixture of nucleotides according to the protocol given by the supplier (Applied Biosystems 4368814). […] The qPCRs are carried out on a 7900HT Fast real-Time PCR detection system (Applied Biosystems). The programming conditions are standard and consist of 1 cycle at 95° C. for 15 min, followed by 40 cycles at 95° C. for 15 s and at 60° C. for 1 min and the program ends with a melt curve step between 60° C. and 95° C. […] Fluorescent probes bind to the double-stranded DNA and are fluorescent only once bound to the DNA. A fluorescence threshold is established by the machine's program. When the amount of DNA allows the fluorescent probe to exceed this threshold, a PCR cycle number, called “Ct” for “Cycle Threshold”, is obtained. It is this value which forms the basis of the calculations to quantify the DNA relatively. A ratio R is established between the amount of starting DNA of a sample and that of a control, which has not undergone treatment (i.e. […] R=2^-ΔΔCt).
A general note: In qPCR the cycle at which signal appears reflects the starting amount.

Consider `CCN(CC)CCO/N=C(/C)[C@H]1CC[C@@]2(O)C3=CC(=O)[C@@H]4C[C@@H](O)[C@@H](O)C[C@]4(C)C3CC[C@]12C` (stereo partly drawn) [Compound 32, (2S,3R,5R,10R,13R,14S,17S)-17-(N-(2-diethylaminoethoxy)-C-methylcarbonimidoyl)-2,3,14-trihydroxy-10,13-dimethyl-2,3,4,5,9,11,12,15,16,17-decahydro-1H-cyclopenta[a]phenanthren-6-one], for which, in experiment [1], the activity at 10 µM was in the range of 110 to 129% and the activity is approximately 120%. Besides, in experiment [2], the mrna remaining at 10 µM is less than 70%.

For `CCOC(=O)CSCC(=O)[C@H]1CC[C@@]2(O)C3=CC(=O)[C@@H]4C[C@@H](O)[C@@H](O)C[C@]4(C)C3CC[C@]12C` (stereo partly drawn) [Compound 92, Ethyl 2-[2-oxo-2-[(2S,3R,5R,10R,13R,14S,17S)-2,3,14-trihydroxy-10,13-dimethyl-6-oxo-2,3,4,5,9,11,12,15,16,17-decahydro-1H-cyclopenta[a]phenanthren-17-yl]ethyl]sulfanylacetate], in experiment [1], the activity at 10 µM is 110 to 129% and the activity was approximately 120%. Further, the mrna remaining at 10 µM in experiment [2] was less than 70%.

Regarding `C=CCCO/N=C(/C)[C@H]1CC[C@@]2(O)C3=CC(=O)[C@@H]4C[C@@H](O)[C@@H](O)C[C@]4(C)C3CC[C@]12C` (stereo partly drawn) [Compound 28, (2S,3R,5R,10R,13R,14S,17S)-17-(N-but-3-enoxy-C-methylcarbonimidoyl)-2,3,14-trihydroxy-10,13-dimethyl-2,3,4,5,9,11,12,15,16,17-decahydro-1H-cyclopenta[a]phenanthren-6-one], in experiment [1], the activity at 10 µM was more than 130% and the activity lay within 130 to 140%. The molecule also displayed a mrna remaining at 10 µM in experiment [2] of less than 70%.

Take `CC(NCc1cccnc1)[C@H]1CC[C@@]2(O)C3=CC(=O)[C@@H]4C[C@@H](O)[C@@H](O)C[C@]4(C)C3CC[C@]12C` (stereo partly drawn) [Compound 43, (2S,3R,5R,10R,13R,14S,17S)-2,3,14-trihydroxy-10,13-dimethyl-17-[1-(3-pyridylmethylamino)ethyl]-2,3,4,5,9,11,12,15,16,17-decahydro-1H-cyclopenta[a]phenanthren-6-one]: in experiment [1], the activity at 10 µM lay in the range of 110 to 129% and the activity is approximately 120%. Besides, the mrna remaining at 10 µM in experiment [2] was less than 70%.

Regarding `C[C@]12C[C@H](O)[C@H](O)C[C@H]1C(=O)C=C1C2CC[C@]2(C)[C@@H](C(=O)CN3CCOCC3)CC[C@@]12O` (stereo partly drawn) [Compound 81, (2S,3R,5R,10R,13R,14S,17S)-2,3,14-trihydroxy-10,13-dimethyl-17-(2-morpholinoacetyl)-2,3,4,5,9,11,12,15,16,17-decahydro-1H-cyclopenta[a]phenanthren-6-one], in experiment [1], the activity at 10 µM was in the range of 110 to 129% and the activity was approximately 120%. This molecule gave a mrna remaining at 10 µM in experiment [2] of less than 70%.

In the case of `C[C@]12C[C@H](O)[C@H](O)C[C@H]1C(=O)C=C1C2CC[C@]2(C)[C@@H](C(=O)CN3CCC(O)C3)CC[C@@]12O` (stereo partly drawn) [Compound 86, (2S,3R,5R,10R,13R,14S,17S)-2,3,14-trihydroxy-17-[2-(3-hydroxypyrrolidin-1-yl)acetyl]-10,13-dimethyl-2,3,4,5,9,11,12,15,16,17-decahydro-1H-cyclopenta[a]phenanthren-6-one], in experiment [1], the activity at 10 µM was more than 130% and the activity was in the range of 130 to 140%. In addition, the mrna remaining at 10 µM in experiment [2] is less than 70%.

Turning to `CN(C)CCCN(C)CC(=O)[C@H]1CC[C@@]2(O)C3=CC(=O)[C@@H]4C[C@@H](O)[C@@H](O)C[C@]4(C)C3CC[C@]12C` (stereo partly drawn) [Compound 91, (2S,3R,5R,10R,13R,14S,17S)-17-[2-(3-dimethylaminopropyl(methyl)amino)acetyl]-2,3,14-trihydroxy-10,13-dimethyl-2,3,4,5,9,11,12,15,16,17-decahydro-1H-cyclopenta[a]phenanthren-6-one], in experiment [1], the activity at 10 µM was 110 to 129% and the activity is approximately 120%. Also, the mrna remaining at 10 µM in experiment [2] lay in the range of 71 to 85%.

Turning to `C[C@]12C[C@H](O)[C@H](O)C[C@H]1C(=O)C=C1C2CC[C@]2(C)[C@@H](C(=O)CN3CCC(O)CC3)CC[C@@]12O` (stereo partly drawn) [Compound 88, (2S,3R,5R,10R,13R,14S,17S)-2,3,14-trihydroxy-17-[2-(4-hydroxy-1-piperidyl)acetyl]-10,13-dimethyl-2,3,4,5,9,11,12,15,16,17-decahydro-1H-cyclopenta[a]phenanthren-6-one], in experiment [1], the activity at 10 µM was in the range of 110 to 129% and the activity was approximately 120%. This molecule displayed a mrna remaining at 10 µM in experiment [2] of 71 to 85%.

Regarding `CC([C@H]1CC[C@@]2(O)C3=CC(=O)[C@@H]4C[C@@H](O)[C@@H](O)C[C@]4(C)C3CC[C@]12C)N(CC(F)F)C(=O)c1ccco1` (stereo partly drawn) [Compound 67, N-(2,2-difluoroethyl)-N-[1-[(2S,3R,5R,10R,13R,14S,17S)-2,3,14-trihydroxy-10,13-dimethyl-6-oxo-2,3,4,5,9,11,12,15,16,17-decahydro-1H-cyclopenta[a]phenanthren-17-yl]ethyl]furan-2-carboxamide], in experiment [1], the activity at 10 µM was more than 130% and the activity was 130 to 140%. For the same molecule, the mrna remaining at 10 µM in experiment [2] is less than 70%.

In the case of `COCC(=O)N(CC1CCCO1)C(C)[C@H]1CC[C@@]2(O)C3=CC(=O)[C@@H]4C[C@@H](O)[C@@H](O)C[C@]4(C)C3CC[C@]12C` (stereo partly drawn) [Compound 62, 2-methoxy-N-(tetrahydrofuran-2-ylmethyl)-N-[1-[(2S,3R,5R,10R,13R,14S,17S)-2,3,14-trihydroxy-10,13-dimethyl-6-oxo-2,3,4,5,9,11,12,15,16,17-decahydro-1H-cyclopenta[a]phenanthren-17-yl]ethyl]acetamide], in experiment [1], the activity at 10 µM was more than 130% and the activity lay in the range of 130 to 140%. Besides, the mrna remaining at 10 µM in experiment [2] was less than 70%.

For `COCCNC(C)[C@H]1CC[C@@]2(O)C3=CC(=O)[C@@H]4C[C@@H](O)[C@@H](O)C[C@]4(C)C3CC[C@]12C` (stereo partly drawn) [Compound 42, (2S,3R,5R,10R,13R,14S,17S)-2,3,14-trihydroxy-17-[1-(2-methoxyethylamino)ethyl]-10,13-dimethyl-2,3,4,5,9,11,12,15,16,17-decahydro-1H-cyclopenta[a]phenanthren-6-one], in experiment [1], the activity at 10 µM was more than 130% and the activity was in the range of 130 to 140%.
